According to patent publication US10654808B2, “Tyrosine kinase inhibitor and pharmaceutical composition comprising same” (GUANGDONG RAYNOVENT BIOTECH CO., LTD., priority 2015, dated 2020):

Columns and labels:
Assay type in all cases: biochemical
VEGFR2 = target: T1, VEGFR2 (Homo sapiens, UniProt P35968); assay: Z'-LYTE in vitro enzyme activity assay, VEGFR2; conditions: 100 μM ATP, 60 minutes, room temperature; read-out: IC50 detected by Z'-LYTE, VEGFR2
T1 construct: purchased Life technology
Experimental: (§1) The enzyme activity was measured by Z′-LYTE™ Detection Kinase Assay. The IC50 value of the compounds was used as an index to evaluate the inhibitory effect of the compounds on VEGFR2, FGFR1 and PDGFRB.
(§2) Recombinant human VEGFR2 and FGFR1 proteases were purchased from Life technology, PDGFRB Protease was purchased from Millipore.
(§3) Z-LYTE™ Kit Tyr1 and Tyr4 were purchased from Life technology. Multi-microplate reader, Envision (PerkinElmer) read board was used.
(§4) The test compounds were diluted 3 times with a concentration gradient, the final concentration was from 10 μM to 0.17 nM with a total of 11 concentrations, and each concentration had two parallel holes; the content of DMSO in the assay was 1%.
3 nM VEGFR2 protein kinase, 2 μM Tyr1 peptide, 100 μM ATP, 50 mM HEPES (pH 7.5), 10 mM MgCl2, 1 mM EGTA, 0.01% BRIJ-35. The detector plate was Black Proxiplate 384-Plus plate (PerkinElmer), the reaction was performed at room temperature for 60 minutes, and the reaction system was 10 μl.
(§5) The reaction was stopped by adding 5 μl of DV reagent B (1:128) to the kinase reaction solution and incubated at 23° C. for 60 minutes. The Envision instrument was used to read the plate.
(§6) The data was converted to phosphorylation rate and inhibition rate and the 4 parameter curve fitting (Model 205 in XLFIT5, iDBS) was used to get IC50 data of the compounds.

PDGFRB = target: T2, PDGFRB (Homo sapiens, UniProt P09619); assay: Z'-LYTE in vitro enzyme activity assay, PDGFRB; conditions: 100 μM ATP, 60 minutes, room temperature; read-out: IC50 detected by Z'-LYTE, PDGFRB
T2 construct: purchased Millipore
T2 sequence (P09619 33-1106): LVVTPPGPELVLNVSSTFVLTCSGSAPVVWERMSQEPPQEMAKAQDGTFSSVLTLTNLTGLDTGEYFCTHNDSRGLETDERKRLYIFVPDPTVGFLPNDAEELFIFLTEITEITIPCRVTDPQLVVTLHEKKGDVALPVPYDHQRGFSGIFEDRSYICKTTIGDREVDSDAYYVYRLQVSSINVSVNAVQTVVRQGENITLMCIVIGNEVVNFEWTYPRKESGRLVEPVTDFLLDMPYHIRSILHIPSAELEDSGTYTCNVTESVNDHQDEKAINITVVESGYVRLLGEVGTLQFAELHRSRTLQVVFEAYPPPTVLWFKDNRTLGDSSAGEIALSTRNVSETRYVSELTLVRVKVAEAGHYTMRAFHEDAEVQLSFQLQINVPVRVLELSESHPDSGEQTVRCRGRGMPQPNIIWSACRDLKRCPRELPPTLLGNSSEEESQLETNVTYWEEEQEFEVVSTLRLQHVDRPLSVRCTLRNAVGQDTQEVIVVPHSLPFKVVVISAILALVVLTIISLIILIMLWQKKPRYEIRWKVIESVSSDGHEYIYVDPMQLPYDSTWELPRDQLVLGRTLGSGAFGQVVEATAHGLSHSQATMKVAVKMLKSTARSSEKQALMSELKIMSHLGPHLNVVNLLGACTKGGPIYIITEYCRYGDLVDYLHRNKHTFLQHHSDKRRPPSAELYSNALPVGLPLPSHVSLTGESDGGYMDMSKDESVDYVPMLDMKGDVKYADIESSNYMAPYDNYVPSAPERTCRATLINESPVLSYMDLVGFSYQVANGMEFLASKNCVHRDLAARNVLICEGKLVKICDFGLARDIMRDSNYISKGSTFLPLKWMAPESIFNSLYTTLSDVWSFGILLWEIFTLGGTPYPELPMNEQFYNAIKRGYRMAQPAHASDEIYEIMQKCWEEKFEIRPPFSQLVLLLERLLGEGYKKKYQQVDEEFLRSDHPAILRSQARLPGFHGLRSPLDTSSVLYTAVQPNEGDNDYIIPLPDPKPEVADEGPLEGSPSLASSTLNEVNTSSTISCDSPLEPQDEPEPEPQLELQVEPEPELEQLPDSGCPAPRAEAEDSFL
Experimental: as §1, §2, §3, §4
(§7) 40 nM PDGFRB protein kinase, 2 μM Tyr4 peptide, 100 μM ATP, 50 mM HEPES (pH 7.5), 10 mM MgCl2, 1 mM EGTA, 0.01% BRIJ-35, 2 mM MnCl2, 1 mM DTT. The detector plate was Black Proxiplate 384-Plus plate (PerkinElmer), the reaction was performed at room temperature for 60 minutes, and the reaction system was 10 μl.
as §5, §6

FGFR1 = target: T3, FGFR1 (Homo sapiens, UniProt P11362); assay: Z'-LYTE in vitro enzyme activity assay, FGFR1; conditions: 25 μM ATP, 60 minutes, room temperature; read-out: IC50 detected by Z'-LYTE, FGFR1
T3 construct: purchased Life technology
T3 sequence (P11362 22-822): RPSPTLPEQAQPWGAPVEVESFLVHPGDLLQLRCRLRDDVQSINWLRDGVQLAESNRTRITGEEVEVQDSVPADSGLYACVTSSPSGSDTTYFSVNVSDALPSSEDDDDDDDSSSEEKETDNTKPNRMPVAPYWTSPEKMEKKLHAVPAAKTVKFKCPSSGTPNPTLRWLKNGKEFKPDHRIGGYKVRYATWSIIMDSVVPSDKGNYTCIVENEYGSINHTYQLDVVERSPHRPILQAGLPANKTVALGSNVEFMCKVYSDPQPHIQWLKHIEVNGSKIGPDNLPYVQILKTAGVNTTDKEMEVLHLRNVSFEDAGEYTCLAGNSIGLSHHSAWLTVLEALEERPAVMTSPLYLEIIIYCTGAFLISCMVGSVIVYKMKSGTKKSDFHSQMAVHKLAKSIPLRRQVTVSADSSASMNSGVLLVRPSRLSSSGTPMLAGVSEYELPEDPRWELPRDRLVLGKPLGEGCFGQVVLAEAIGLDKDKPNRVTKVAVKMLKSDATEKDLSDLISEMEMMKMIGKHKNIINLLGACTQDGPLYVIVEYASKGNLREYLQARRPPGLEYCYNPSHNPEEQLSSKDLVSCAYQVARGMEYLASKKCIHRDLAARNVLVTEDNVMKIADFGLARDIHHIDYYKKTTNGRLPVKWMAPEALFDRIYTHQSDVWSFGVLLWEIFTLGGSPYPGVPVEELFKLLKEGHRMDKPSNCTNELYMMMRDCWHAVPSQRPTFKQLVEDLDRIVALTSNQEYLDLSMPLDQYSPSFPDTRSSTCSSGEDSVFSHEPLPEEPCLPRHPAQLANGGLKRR
Experimental: as §1, §2, §3, §4
as §7, with “1” for “40”, “FGFR1” for “PDGFRB”, “25” for “100”
as §5, §6

T1 sequence (P35968 20-1356): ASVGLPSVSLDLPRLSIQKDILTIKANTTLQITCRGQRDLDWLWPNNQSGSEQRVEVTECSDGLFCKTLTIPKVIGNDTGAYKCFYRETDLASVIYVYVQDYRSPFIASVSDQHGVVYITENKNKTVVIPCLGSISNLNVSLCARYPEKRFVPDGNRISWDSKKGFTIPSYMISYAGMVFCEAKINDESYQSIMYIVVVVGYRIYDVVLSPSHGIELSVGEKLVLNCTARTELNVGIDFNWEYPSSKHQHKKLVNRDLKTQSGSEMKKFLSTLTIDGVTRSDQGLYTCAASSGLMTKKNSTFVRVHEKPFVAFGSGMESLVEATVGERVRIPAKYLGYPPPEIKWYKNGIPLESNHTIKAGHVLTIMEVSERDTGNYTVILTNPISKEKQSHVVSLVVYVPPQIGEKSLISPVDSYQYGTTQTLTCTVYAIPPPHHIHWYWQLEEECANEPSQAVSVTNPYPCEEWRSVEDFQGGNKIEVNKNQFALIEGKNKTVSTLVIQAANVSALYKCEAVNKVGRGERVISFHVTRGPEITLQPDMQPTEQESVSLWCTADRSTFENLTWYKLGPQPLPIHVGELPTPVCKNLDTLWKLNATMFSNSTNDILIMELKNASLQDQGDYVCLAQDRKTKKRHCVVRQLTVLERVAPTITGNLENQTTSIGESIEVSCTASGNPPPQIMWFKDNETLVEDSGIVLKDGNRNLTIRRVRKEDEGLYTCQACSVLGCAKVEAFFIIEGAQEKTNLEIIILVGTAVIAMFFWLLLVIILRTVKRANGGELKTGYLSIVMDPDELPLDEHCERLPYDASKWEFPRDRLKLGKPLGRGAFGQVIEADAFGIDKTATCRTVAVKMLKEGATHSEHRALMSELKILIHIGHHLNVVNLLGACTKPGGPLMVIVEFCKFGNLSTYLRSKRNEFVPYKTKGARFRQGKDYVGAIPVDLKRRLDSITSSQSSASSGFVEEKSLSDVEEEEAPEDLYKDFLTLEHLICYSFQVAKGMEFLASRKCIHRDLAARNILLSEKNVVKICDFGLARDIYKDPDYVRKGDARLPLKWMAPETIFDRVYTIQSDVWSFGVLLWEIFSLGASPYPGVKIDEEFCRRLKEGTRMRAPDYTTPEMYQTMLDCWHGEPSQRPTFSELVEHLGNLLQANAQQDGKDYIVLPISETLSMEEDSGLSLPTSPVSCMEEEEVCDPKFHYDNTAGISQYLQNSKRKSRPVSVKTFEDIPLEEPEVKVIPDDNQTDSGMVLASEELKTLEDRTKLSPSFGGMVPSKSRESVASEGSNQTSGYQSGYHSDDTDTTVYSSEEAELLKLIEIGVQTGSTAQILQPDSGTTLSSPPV

IC50 (VEGFR2) [nM]	IC50 (PDGFRB) [nM]	IC50 (FGFR1) [nM]	Structure (SMILES)
50 to 200	< 50	200 to 1000	COc1cc2nccc(Oc3ccc(NC(=S)NCCCSC)c(Cl)c3)c2cc1C(N)=O [Example 63]
200 to 1000	200 to 1000	200 to 1000	COc1cc2nccc(Oc3ccc(NC(=S)N4CC(C)(O)C4)c(Cl)c3)c2cc1C(N)=O [Example 85]
200 to 1000	200 to 1000	200 to 1000	COc1cc2nccc(Oc3ccc(NC(=S)NC4CCOC4=O)c(Cl)c3)c2cc1C(N)=O (stereo not drawn) [Example 93]
200 to 1000	200 to 1000	200 to 1000	COc1cc2nccc(Oc3ccc(NC(=S)NC4CC4)c(Cl)c3)c2cc1C(=O)N(C)C [Example 47]
200 to 1000	200 to 1000	200 to 1000	COc1cc2nccc(Oc3ccc(NC(=S)N4CCCC4)c(Cl)c3)c2cc1NC(C)=O [Example 181]
50 to 200	200 to 1000	200 to 1000	COc1cc2nccc(Oc3ccc(NC(=S)N4CCC(F)(F)C4)c(Cl)c3)c2cc1C(N)=O [Example 66]
50 to 200	200 to 1000	200 to 1000	COc1cc2nccc(Oc3ccc(NC(=S)N4CC[C@@H](O)C4)c(Cl)c3)c2cc1C(N)=O [Example 73]
200 to 1000	200 to 1000	200 to 1000	COc1cc2nccc(Oc3ccc(NC(=O)NC(C)C(F)(F)F)c(Cl)c3)c2cc1C(N)=O (stereo not drawn) [Example 36]
50 to 200	50 to 200	200 to 1000	COc1cc2nccc(Oc3ccc(NC(=S)Nc4cnc(C)s4)c(Cl)c3)c2cc1C(N)=O [Example 71]
50 to 200	50 to 200	200 to 1000	COc1cc2nccc(Oc3ccc(NC(=S)NCCCO)c(Cl)c3)c2cc1C(N)=O [Example 29]
< 50	200 to 1000	200 to 1000	COc1cc2nccc(Oc3ccc(NC(=S)N4CCCC4)c(Cl)c3)c2cc1C(N)=O [Example 32]
200 to 1000	200 to 1000	200 to 1000	COc1cc2nccc(Oc3ccc(NC(=S)NCC(C)(C)O)c(Cl)c3)c2cc1C(N)=O [Example 30]
200 to 1000	50 to 200	200 to 1000	COc1cc2nccc(Oc3ccc(NC(=S)N4CCN(C)CC4)c(Cl)c3)c2cc1C(N)=O [Example 51]
200 to 1000	200 to 1000	200 to 1000	COc1cc2nccc(Oc3ccc(NC(=O)C4(C(=O)NC5CC5)CC4)c(Cl)c3)c2cc1C(N)=O [Example 168]
50 to 200	< 50	200 to 1000	COc1cc2nccc(Oc3ccc(NC(=S)Nc4ccccc4F)c(Cl)c3)c2cc1C(N)=O [Example 65]
50 to 200	200 to 1000	200 to 1000	COc1cc2nccc(Oc3ccc(NC(=S)Nc4cc[nH]n4)c(Cl)c3)c2cc1C(N)=O [Example 4]
200 to 1000	200 to 1000	200 to 1000	COc1cc2nccc(Oc3ccc(NC(=S)NC4(C#N)CC4)c(Cl)c3)c2cc1C(N)=O [Example 75]

More lines, now with the values behind:

Structure (SMILES)	IC50 (VEGFR2) [nM]	IC50 (PDGFRB) [nM]	IC50 (FGFR1) [nM]
COc1cc2nccc(Oc3ccc4nc(NC5CCC5)sc4c3)c2cc1C(N)=O [Example 158]	200 to 1000	200 to 1000	200 to 1000
Cc1nc(-c2ccc3c(Oc4ccc(NC(=O)NC5CC5)c(Cl)c4F)ccnc3c2)cn1C [Example 229]	< 50	< 50	< 50
Cn1cncc1-c1ccc2c(Oc3ccc(NC(=S)NC4CC4)c(Cl)c3)ccnc2c1 [Example 213]	< 50	50 to 200	50 to 200
COc1cc2nccc(Oc3ccc4c(c3)CCCN4C(=S)NC3CC3)c2cc1C(N)=O [Example 26]	50 to 200	200 to 1000	200 to 1000
COc1cc2nccc(Oc3ccc(NC(=O)N4CC(F)C4)c(Cl)c3F)c2cc1C(N)=O [Example 122]	50 to 200	< 50	200 to 1000
CCCNc1c(Nc2ccc(Oc3ccnc4cc(OC)c(C(N)=O)cc34)cc2Cl)c(=O)c1=O [Example 140]	200 to 1000	200 to 1000	200 to 1000
COc1cc2nccc(Oc3ccc(NC(=O)N4CC(F)(F)C4)c(Cl)c3F)c2cc1C(N)=O [Example 119]	50 to 200	< 50	200 to 1000
COc1cc2nccc(Oc3ccc(CC(=O)N4CCCC4)cc3)c2cc1C(N)=O [Example 176]	200 to 1000	200 to 1000	200 to 1000
COc1cc2nccc(Oc3ccc(Nc4c(NCc5ccncc5)c(=O)c4=O)c(Cl)c3)c2cc1C(N)=O [Example 153]	200 to 1000	200 to 1000	200 to 1000
COc1cc2nccc(Oc3ccc(Nc4c(NCC(F)(F)F)c(=O)c4=O)c(Cl)c3)c2cc1C(N)=O [Example 138]	200 to 1000	200 to 1000	200 to 1000
COc1cc2nccc(Oc3ccc(Nc4c(Nc5cccnc5)c(=O)c4=O)c(Cl)c3)c2cc1C(N)=O [Example 147]	200 to 1000	200 to 1000	200 to 1000
COc1cc2nccc(Oc3ccc(NC(=S)Nc4ccc(F)cc4)c(Cl)c3)c2cc1C(N)=O [Example 64]	50 to 200	< 50	200 to 1000
COc1cc2nccc(Oc3cc(Br)c4c(C(=O)N5CC(F)(F)C5)coc4c3)c2cc1C(N)=O [Example 204]	200 to 1000	200 to 1000	200 to 1000
COc1cc2nccc(Oc3cc4occ(C(=O)N5CCCC5)c4cc3Cl)c2cc1C(N)=O [Example 197]	200 to 1000	200 to 1000	200 to 1000
COc1cc2nccc(Oc3ccc(NC(=S)NC4CC4)cc3C(F)(F)F)c2cc1C(N)=O [Example 42]	200 to 1000	200 to 1000	200 to 1000
COc1cc2nccc(Oc3ccc(NC(=S)NC4CC4)c(Cl)c3)c2cc1C#N [Example 80]	50 to 200	200 to 1000	200 to 1000
CCNC(=O)c1coc2cc(Oc3ccnc4cc(OC)c(C(N)=O)cc34)c(F)cc12 [Example 208]	50 to 200	< 50	200 to 1000
[2H]C([2H])([2H])NC(=O)c1coc2cc(Oc3ccnc4cc(OC)c(C(N)=O)cc34)c(Cl)cc12 [Example 211]	50 to 200	< 50	200 to 1000
Cc1c(OCC(C)O)cn2ncnc(Oc3ccc(NC(=S)NC4CC4)c(Cl)c3)c12 (stereo not drawn) [Example 25]	200 to 1000	200 to 1000	200 to 1000
COc1cc2nccc(Oc3ccc(NC(=S)N4CC[C@H](O)C4)c(Cl)c3F)c2cc1C(N)=O [Example 106]	< 50	200 to 1000	50 to 200
COc1cc2nccc(Oc3ccc(N4CCNC4=O)c(Cl)c3)c2cc1C(N)=O [Example 165]	200 to 1000	200 to 1000	200 to 1000
COc1cc2nccc(Oc3ccc(Nc4c(NC5CCC5)c(=O)c4=O)c(Cl)c3)c2cc1C(N)=O [Example 145]	200 to 1000	< 50	200 to 1000
COc1cc2nccc(Oc3ccc4c(C(=O)N5CC(F)(F)C5)c[nH]c4c3)c2cc1C(N)=O [Example 189]	200 to 1000	200 to 1000	200 to 1000
COc1cc2nccc(Oc3ccc(NC(=S)NC4CC4)c(Cl)c3)c2cc1C(=O)N1CCCC1 [Example 48]	200 to 1000	50 to 200	200 to 1000
COc1cc2nccc(Oc3ccc(NC(=S)NC4CC4)nc3)c2cc1C(N)=O [Example 43]	200 to 1000	< 50	200 to 1000
COc1cc2nccc(Oc3ccc(NC(=O)N4CC(O)C4)c(Cl)c3F)c2cc1C(N)=O [Example 121]	50 to 200	200 to 1000	200 to 1000
COc1cc2nccc(Oc3ccc(NC(=S)NC4CC4)c(Cl)c3)c2cc1C(=O)NCC(F)F [Example 37]	< 50	50 to 200	200 to 1000
COc1ccc2c(Oc3ccc(NC(=S)N4CC(F)(F)C4)c(Cl)c3)ccnc2c1 [Example 171]	200 to 1000	200 to 1000	200 to 1000
COc1cc2nccc(Oc3ccc(Nc4c(NCc5ccccn5)c(=O)c4=O)c(Cl)c3)c2cc1C(N)=O [Example 150]	200 to 1000	< 50	200 to 1000
